From patent US20070117842A1, “Polymorph of 4-[3-chloro-4-(cyclopropylaminocarbonyl)aminophenoxy]-7-methoxy-6- quinolinecarboxamide and a process for the preparation of the same” (priority 2003, published 2007)
≈ marks a conversion by molar mass, not a printed value.

Key:
Type in all cases: physicochemical
[1] = Solid stability test (1 month storage; appearance, water content, HPLC purity and residual ratio, powder X-ray diffraction); conditions: for impurity / remaining percent: HPLC; for water content: Karl Fischer method
Procedure: (Solid Stability Test) The solid stabilities of the crystal obtained in Examples 1d and 2d were evaluated. […] The water content measurement and the powder X-ray diffraction measurement were carried out by the same method as described in the hygroscopicity test by the dessiccator method. Further, the purity test and the residual ratio (percent) measurement by HPLC were carried out by the same method as described above, except for the condition that the column temperature was 35° C. In this connection, the residual ratio (percent) (measurement by HPLC) was defined as stated bellow by using the crystal stored under the condition C as the standard and its solution as the standard solution. Remaining percent (%)=[(Peak area of the sample solution)×(Weighed amount of the standard: in terms of a dehydrate (mg))]×100/[(Peak area of the standard solution)×(Weighed amount of the sample: in terms of a dehydrate (mg))] [table]

[2] = Crystal transition between polymorphs in heated suspension; conditions: 60° C., 3 hours, listed as polymorph (A)
Procedure: These suspensions were filtered to collect 4-(3-chloro-4-(cyclopropylaminocarbonyl)aminophenoxy)-7-methoxy-6-quinolinecarboxamide (184 to 266 mg).
These suspensions were filtered to collect 4-(3-chloro-4-(cyclopropylaminocarbonyl)aminophenoxy)-7-methoxy-6-quinolinecarboxamide (141 to 256 mg).

[3] = Hygroscopicity test by microbalance method; conditions: 25° C.
Procedure: (Hygroscopicity Test by Microbalance Method)
The higroscopicities of the crystals obtained in Examples 1d and 2d were evaluated by microbalance method. An apparatus and conditions employed were as follows.
Apparatus: Integrated microbalance system MB 300W (VTI Co.)
Relative humidity step: 5 to 95 by 5
Equilibrium Criteria: 0.0050 wt % (5 minutes)
Maximum equilibrium time: 120 minutes
The results of measuring the higroscopicities of the crystals obtained in Examples 1d and 2d by microbalance method are shown in FIGS. 13 and 14, respectively. As is seen from the results shown in these figures, within the range of 5-95% of relative humidity, the polymorph (A) gave a weight change of 1% and the polymorph (B) gave that of 1.5%.

[4] = Hygroscopicity test by a desiccator method; conditions: for water content: Karl Fischer method
Procedure: (Hygroscopicity Test by a Desiccator Method) The hygroscopicities of the crystals obtained in Examples 1d and 2d were evaluated by a desiccator method. […] Weighing bottles (in opened caps) were used for containers, and MIR-552 (Sanyo) was used for a storage apparatus. [table] The powder X-ray diffraction analysis was carried out under the following conditions. The water content was measured (by the Karl Fischer method) by using the following apparatus and reagents.

[5] = Solubility test (pH 3, Britton Robinson buffer); conditions: for pH of the filtrate: solubility test
Procedure: (Solubility Test) The solubilities (pH 3) of the crystals obtained in Examples 1d and 2d were evaluated by the following method. About 3 mg of the crystals obtained in Examples 1d and 2d were weighed and each of them was put in a 10 mL screw-capped transparent test tube. 5 mL of a buffer solution (Britton Robinson buffer, pH 3.091, ionic strength I=0.3) was added to each of the test tubes to prepare the test solutions. The test tubes were wrapped with aluminum foil to shield from light, and shaken by a shaker (MS-1 Iuchi Seieido) in the following conditions. Temperature: 25-26° C. (a temperature in a laboratory) Shaking frequency: 150 times/minute Shaking time: 3 hours and 5 hours Respective sample solutions after shaking were filtered ([…], Sample LCR13-LG, Millipore Co.), and each 1 mL of the initial filtrate was discarded. Each of accurately pipetted 1 mL of the filtrates was put in a 10 mL test tube, to which accurately pipetted 1 mL of a mixed solution of water/acetonitrile (1:1 (v/v)) was added to prepare a solution for the HPLC analysis. The HPLC conditions were as follows. A standard solution for the HPLC analysis were prepared as follows. About 10 mg of the crystals obtained in Example 2d was accurately weighed, to which a mixed solution of water/acetonitrile/ammonium acetate (100:100:0.1, v/v/w) was added to give accurate 100 mL to prepare a stock standard solution. Accurately pipetted 5 mL of the stock control solution was added with a mixed solution of water/acetonitrile/ammonium acetate (100:100:0.1, v/v/w) to give accurate 25 mL to prepare the standard solution for the HPLC analysis. Regarding a blank solution, a mixed solution of water/acetonitrile/ammonium acetate (100:100:0.1, v/v/w) was used. The standard solution and respective filtrates were analyzed by HPLC to measure concentrations (mg/mL) of 4-(3-chloro-4-(cyclopropylaminocarbonyl)aminophenoxy)-7-methoxy-6-quinolinecarboxamide in respective filtrates according to the following equation. Concentration (mg/mL)=(Concentration in the standard solution, mg/mL)×[(Peak area in each filtrate)×2/(Peak area in the standard solution)] As is evident from the results, there was no significant difference in the solubility at pH 3 between the polymorphs (A) and (B).

[6] = condition C: −20° C., brown screw vial, closed, 1 month
[7] = condition D: 25° C., 1000lx, shading with aluminum foil, quartz tube, closed, 1 month
[8] = condition E: 25° C., 1000lx, quartz tube, closed, 1 month
[9] = condition F: 40° C., 75% RH, brown screw vial, open, 1 month
[10] = condition G: 60° C., brown screw vial, closed, 1 month
[11] = condition A: 25° C., 75% relative humidity, stored 1 week
[12] = condition B: 25° C., 93% relative humidity, stored 1 week
[13] = desiccator method, 25° C., 75% or 93% relative humidity, 1 week

appearance [1, 6]: light brown
impurity [1, 6]: 2.66%
remaining percent ([1]; condition C: −20° C., brown screw vial, closed, 1 month, condition C is the standard): (100) %
water content [1, 6]: 1.0 wt %
appearance [1, 7]: light brown
impurity [1, 7]: 2.67%
remaining percent ([1]; condition D: 25° C., 1000lx, shading with aluminum foil, quartz tube, closed, 1 month, vs condition C standard): 103.3%
water content [1, 7]: 0.7 wt %
appearance [1, 8]: light brown
impurity [1, 8]: 2.68%
remaining percent ([1]; condition E: 25° C., 1000lx, quartz tube, closed, 1 month, vs condition C standard): 104.3%
water content [1, 8]: 0.8 wt %
appearance [1, 9]: light brown
impurity [1, 9]: 2.65%
remaining percent ([1]; condition F: 40° C., 75% RH, brown screw vial, open, 1 month, vs condition C standard): 102.3%
water content [1, 9]: 1.2 wt %
appearance [1, 10]: light brown
impurity [1, 10]: 2.65%
remaining percent ([1]; condition G: 60° C., brown screw vial, closed, 1 month, vs condition C standard): 104.4%
water content [1, 10]: 0.5 wt %
appearance ([1]; prior to storage): light brown
impurity ([1]; prior to storage): 2.71%
water content ([1]; prior to storage): 1.0 wt %
change on storage (solid stability) ([1]; stored for 1 month, any storage conditions): no change was observed
dissolution in DMSO ([2]; 300 mg in DMSO (1.7 mL), without 33% acetone-water): most of the polymorph (A) dissolved
hygroscopicity ([3]; microbalance method, 5-95% relative humidity): no perceivable hygroscopisity
weight change ([3]; within the range of 5-95% of relative humidity, listed as polymorph (A)): 1%
appearance [4, 11]: light brown
water content [4, 11]: 1.0 wt %
appearance [4, 12]: light brown
water content [4, 12]: 1.2 wt %
crystal transition [4, 13]: no perceivable crystal transition
hygroscopicity [4, 13]: no perceivable hygroscopicitiy
appearance ([4]; prior to storage): light brown
water content ([4]; prior to storage): 1.0 wt %
solubility at 3 h ([5]; Britton Robinson buffer, 25 °C, pH 3, aqueous buffer, thermodynamic from solid, pH 3 Britton Robinson buffer, 25-26° C., shaking time 3 hours, read-out: solubility (concentration in filtrate)): 77 µg/mL (≈ 180 µM)
solubility at 5 h ([5]; Britton Robinson buffer, 25 °C, pH 3, aqueous buffer, thermodynamic from solid, pH 3 Britton Robinson buffer, 25-26° C., shaking time 5 hours, read-out: solubility (concentration in filtrate)): 71 µg/mL (≈ 166 µM)
pH of the filtrate ([5]; shaking time 3 hours): 3.123
pH of the filtrate ([5]; shaking time 5 hours): 3.107
SMILES: COc1cc2nccc(Oc3ccc(NC(=O)NC4CC4)c(Cl)c3)c2cc1C(N)=O [Example 1d, 4-(3-chloro-4-(cyclopropylaminocarbonyl)aminophenoxy)-7-methoxy-6-quinolinecarboxamide]
crystal form after suspension ([2]; 300 mg in DMSO (1.7 mL) and 33% (v/v) acetone-water (0.17, 0.34, 0.51 or 0.85 mL)): crystal transition to the polymorph (B) occurred in every case
